Results published in patent US9278963B2, “Pyrimidine hydroxy amide compounds as histone deacetylase inhibitors” (Acetylon Pharmaceuticals, Inc., priority 2013, dated 2016).

Columns and labels:
Assay type in all cases: biochemical
[1] = molecular target: HDAC1 (Homo sapiens (Human), UniProt Q13547); assay: HDAC enzyme assay, HDAC1
Procedure: (§1) Compounds for testing were diluted in DMSO to 50 fold the final concentration and a ten point three fold dilution series was made. The compounds were diluted in assay buffer (50 mM HEPES, pH 7.4, 100 mM KCl, 0.001% Tween-20, 0.05% BSA, 20 μM TCEP) to 6 fold their final concentration. The HDAC enzymes (purchased from BPS Biosciences) were diluted to 1.5 fold their final concentration in assay buffer. The tripeptide substrate and trypsin at 0.05 μM final concentration were diluted in assay buffer at 6 fold their final concentration. The final enzyme concentrations used in these assays were 3.3 ng/ml (HDAC1), 0.2 ng/ml (HDAC2), 0.08 ng/ml (HDAC3) and 2 ng/ml (HDAC6). The final substrate concentrations used were 16 μM (HDAC1), 10 μM (HDAC2), 17 μM (HDAC3) and 14 μM (HDAC6).
(§2) Five μl of compounds and 20 μl of enzyme were added to wells of a black, opaque 384 well plate in duplicate. Enzyme and compound were incubated together at room temperature for 10 minutes. Five μ1 of substrate was added to each well, the plate was shaken for 60 seconds and placed into a Victor 2 microtiter plate reader. The development of fluorescence was monitored for 60 min and the linear rate of the reaction was calculated. The IC50 was determined using Graph Pad Prism by a four parameter curve fit.

[2] = molecular target: HDAC2 (Homo sapiens (Human), UniProt Q92769); assay: HDAC enzyme assay, HDAC2
Sequence of HDAC2 (Q92769 whole entry): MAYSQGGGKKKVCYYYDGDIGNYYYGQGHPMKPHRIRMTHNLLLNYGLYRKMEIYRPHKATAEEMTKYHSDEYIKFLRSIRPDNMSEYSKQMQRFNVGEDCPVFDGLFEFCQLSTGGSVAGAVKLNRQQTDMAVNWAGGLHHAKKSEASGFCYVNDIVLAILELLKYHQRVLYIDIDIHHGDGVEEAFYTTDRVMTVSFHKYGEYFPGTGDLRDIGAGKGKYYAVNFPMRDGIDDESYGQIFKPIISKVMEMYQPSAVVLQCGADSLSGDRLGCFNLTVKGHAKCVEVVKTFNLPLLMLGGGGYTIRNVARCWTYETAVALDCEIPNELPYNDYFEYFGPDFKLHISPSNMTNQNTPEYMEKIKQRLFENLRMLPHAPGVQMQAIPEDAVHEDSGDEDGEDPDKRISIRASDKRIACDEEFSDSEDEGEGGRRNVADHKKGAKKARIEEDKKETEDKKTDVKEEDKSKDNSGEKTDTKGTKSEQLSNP
Procedure: as §1, §2

[3] = molecular target: HDAC3 (Homo sapiens (Human), UniProt O15379); assay: HDAC enzyme assay, HDAC3
Sequence of HDAC3 (O15379 whole entry): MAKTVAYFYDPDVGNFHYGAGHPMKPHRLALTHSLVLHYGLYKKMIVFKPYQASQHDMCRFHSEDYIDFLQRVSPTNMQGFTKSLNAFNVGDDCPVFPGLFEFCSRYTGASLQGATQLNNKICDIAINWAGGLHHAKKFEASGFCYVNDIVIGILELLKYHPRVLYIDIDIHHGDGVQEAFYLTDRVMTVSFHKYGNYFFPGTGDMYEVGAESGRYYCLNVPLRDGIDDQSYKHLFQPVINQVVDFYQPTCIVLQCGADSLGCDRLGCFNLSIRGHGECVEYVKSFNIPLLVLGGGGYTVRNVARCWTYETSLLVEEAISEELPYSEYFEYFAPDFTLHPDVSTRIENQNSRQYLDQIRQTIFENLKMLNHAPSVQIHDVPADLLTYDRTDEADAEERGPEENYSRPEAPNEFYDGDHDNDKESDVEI
Sequence of HDAC3 (Q9Y618 395-489 partner): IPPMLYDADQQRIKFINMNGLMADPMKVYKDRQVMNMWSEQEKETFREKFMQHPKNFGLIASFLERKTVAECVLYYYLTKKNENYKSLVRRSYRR
Procedure: as §1, with “The HDAC enzymes (purchased from BPS Biosciences) were diluted to 1.5 fold their final concentration in assay buffer.” left out, “(HDAC6).” for “(HDAC6). The final substrate concentrations used were 16 μM (HDAC1), 10 μM (HDAC2), 17 μM (HDAC3) and 14 μM (HDAC6).”
as §2

[4] = molecular target: HDAC6 (Homo sapiens (Human), UniProt Q9UBN7); assay: HDAC enzyme assay, HDAC6
Sequence of HDAC6 (Q9UBN7 whole entry): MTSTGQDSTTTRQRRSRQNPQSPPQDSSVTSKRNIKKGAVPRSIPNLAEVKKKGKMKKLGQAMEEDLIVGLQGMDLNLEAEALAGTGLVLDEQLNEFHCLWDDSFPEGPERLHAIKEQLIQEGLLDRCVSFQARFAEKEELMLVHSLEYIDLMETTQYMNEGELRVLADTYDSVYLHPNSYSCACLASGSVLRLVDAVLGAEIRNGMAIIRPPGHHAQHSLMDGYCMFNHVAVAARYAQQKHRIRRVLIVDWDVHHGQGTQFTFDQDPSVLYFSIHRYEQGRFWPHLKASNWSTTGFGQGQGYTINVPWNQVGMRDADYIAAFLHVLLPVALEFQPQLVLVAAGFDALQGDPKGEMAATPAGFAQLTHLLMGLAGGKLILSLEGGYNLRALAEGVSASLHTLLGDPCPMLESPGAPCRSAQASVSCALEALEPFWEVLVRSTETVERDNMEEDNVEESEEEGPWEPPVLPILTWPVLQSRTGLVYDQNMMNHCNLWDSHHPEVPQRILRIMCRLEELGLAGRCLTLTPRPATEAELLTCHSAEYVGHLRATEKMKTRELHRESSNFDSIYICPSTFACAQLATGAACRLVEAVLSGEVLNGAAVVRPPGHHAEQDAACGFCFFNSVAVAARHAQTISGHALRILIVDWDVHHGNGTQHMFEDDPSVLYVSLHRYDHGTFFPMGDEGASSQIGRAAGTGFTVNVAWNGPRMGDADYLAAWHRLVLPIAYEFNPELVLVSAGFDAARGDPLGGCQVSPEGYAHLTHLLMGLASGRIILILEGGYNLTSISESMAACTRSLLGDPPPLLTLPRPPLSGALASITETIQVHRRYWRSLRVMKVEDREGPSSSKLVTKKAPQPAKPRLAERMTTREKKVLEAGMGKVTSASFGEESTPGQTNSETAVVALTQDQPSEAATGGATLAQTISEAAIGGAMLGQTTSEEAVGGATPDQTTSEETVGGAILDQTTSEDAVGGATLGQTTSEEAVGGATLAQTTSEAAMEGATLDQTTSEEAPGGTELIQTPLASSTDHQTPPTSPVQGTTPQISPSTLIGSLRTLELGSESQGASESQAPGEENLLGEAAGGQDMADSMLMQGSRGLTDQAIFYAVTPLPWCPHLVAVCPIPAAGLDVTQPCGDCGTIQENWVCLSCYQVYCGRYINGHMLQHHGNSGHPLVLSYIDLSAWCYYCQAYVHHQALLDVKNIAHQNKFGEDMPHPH
Procedure: as §1
as §2, with “fit. The IC50 values obtained for several of the compounds of this invention are found in Table 1.” for “fit.”

Sequence of HDAC1 (Q13547 whole entry): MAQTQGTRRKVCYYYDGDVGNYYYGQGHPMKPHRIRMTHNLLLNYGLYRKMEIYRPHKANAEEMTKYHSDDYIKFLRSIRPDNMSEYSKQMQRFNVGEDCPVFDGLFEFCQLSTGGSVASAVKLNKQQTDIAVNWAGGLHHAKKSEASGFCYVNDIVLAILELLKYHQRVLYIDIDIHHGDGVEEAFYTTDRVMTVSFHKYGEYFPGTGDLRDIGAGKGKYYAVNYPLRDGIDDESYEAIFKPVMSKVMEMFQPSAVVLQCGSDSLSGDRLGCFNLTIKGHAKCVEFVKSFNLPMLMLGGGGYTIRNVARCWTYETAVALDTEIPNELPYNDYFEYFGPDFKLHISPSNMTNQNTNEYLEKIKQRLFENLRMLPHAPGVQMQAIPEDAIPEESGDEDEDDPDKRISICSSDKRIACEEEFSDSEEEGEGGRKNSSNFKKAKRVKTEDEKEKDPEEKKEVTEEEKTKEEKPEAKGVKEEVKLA

| SMILES | IC50 [1] [nM] | IC50 [2] [nM] | IC50 [3] [nM] | IC50 [4] [nM] |
| --- | --- | --- | --- | --- |
| O=C(NO)c1cnc(NC2(c3ccccc3)CCN(C(=O)OCc3ccccc3)CC2)nc1 [Compound 002, benzyl 4-((5-(hydroxycarbamoyl)pyrimidin-2-yl)amino)-4-phenylpiperidine-1-carboxylate] | 1010 | 983 | 1640 | 2.6 |
| CC(=O)N1CCC(Nc2ncc(C(=O)NO)cn2)(c2ccccc2)CC1 [Compound 003, 2-((1-acetyl-4-phenylpiperidin-4-yl)amino)-N-hydroxypyrimidine-5-carboxamide] | 346 | 254 | 840 | 1.6 |
| CCOC(=O)N1CCC(Nc2ncc(C(=O)NO)cn2)(c2ccccc2)CC1 [Compound 004, ethyl 4-((5-(hydroxycarbamoyl)pyrimidin-2-yl)amino)-4-phenylpiperidine-1-carboxylate] | 275 | 321 | 1000 | 2.9 |
| CC(=O)N1CCC(Nc2ncc(C(=O)NO)cn2)(C(C)C)CC1 [Compound 005, 2-((1-acetyl-4-isopropylpiperidin-4-yl)amino)-N-hydroxypyrimidine-5-carboxamide] | 1830 | 2390 | 8180 | 5.9 |
| CCOC(=O)N1CCC(Nc2ncc(C(=O)NO)cn2)(C(C)C)CC1 [Compound 006, ethyl 4-((5-(hydroxycarbamoyl)pyrimidin-2-yl)amino)-4-isopropylpiperidine-1-carboxylate] | 697 | 809 | 3780 | 4 |
| CC(C)C1(Nc2ncc(C(=O)NO)cn2)CCN(C(=O)OCc2ccccc2)CC1 [Compound 007, benzyl 4-((5-(hydroxycarbamoyl)pyrimidin-2-yl)amino)-4-isopropylpiperidine-1-carboxylate] | 119 | 121 | 879 | 5.1 |
| COc1ccc(NC(=O)N2CCC(Nc3ncc(C(=O)NO)cn3)(c3ccccc3)CC2)cc1 [Compound 008, N-hydroxy-2-((1-((4-methoxyphenyl)carbamoyl)-4-phenylpiperidin-4-yl)amino)pyrimidine-5-carboxamide] | 21 | 24 | 546 | 1.5 |
| O=C(NO)c1cnc(NC2(c3ccccc3)CCN(c3ccccc3)CC2)nc1 [Compound 009, 2-((1,4-diphenylpiperidin-4-yl)amino)-N-hydroxypyrimidine-5-carboxamide] | 356 | 380 | 1780 | 2.1 |
| O=C(NO)c1cnc(NC2(c3ccccc3)CCN(C(=O)Nc3ccccc3F)CC2)nc1 [Compound 010, 2-((1-((2-fluorophenyl)carbamoyl)-4-phenylpiperidin-4-yl)amino)-N-hydroxypyrimidine-5-carboxamide] | 18 | 27 | 824 | 1.7 |
| CN(C(=O)N1CCC(Nc2ncc(C(=O)NO)cn2)(c2ccccc2)CC1)c1ccccc1 [Compound 012, N-hydroxy-2-((1-(methyl(phenyl)carbamoyl)-4-phenylpiperidin-4-yl)amino)pyrimidine-5-carboxamide] | 266 | 377 | 1620 | 2.2 |
| O=C(NO)c1cnc(NC2(c3ccccc3)CCN(C(=O)Nc3cccc(F)c3)CC2)nc1 [Compound 013, 2-((1-((3-fluorophenyl)carbamoyl)-4-phenylpiperidin-4-yl)amino)-N-hydroxypyrimidine-5-carboxamide] | 50 | 74 | 1080 | 2.5 |

Continued, values first:

| IC50 [1] [nM] | IC50 [2] [nM] | IC50 [3] [nM] | IC50 [4] [nM] | SMILES |
| --- | --- | --- | --- | --- |
| 20 | 18 | 84 | 13 | CC(C)[C@@H](C(=O)N1CCC(Nc2ncc(C(=O)NO)cn2)(c2ccccc2)CC1)c1ccccc1 (stereo in doubt) [Compound 025, N-hydroxy-2-((1-(3-methyl-2-phenylbutanoyl)-4-phenylpiperidin-4-yl)amino)pyrimidine-5-carboxamide] |
| 206 | 173 | 1100 | 5 | CC(C)[C@H](C(=O)N1CCC(Nc2ncc(C(=O)NO)cn2)(c2ccccc2)CC1)c1ccccc1 (stereo in doubt) [Compound 026, N-hydroxy-2-((1-(3-methyl-2-phenylbutanoyl)-4-phenylpiperidin-4-yl)amino)pyrimidine-5-carboxamide] |
| 102 | 93 | 914 | 11 | CC(C)C[C@H](C(=O)N1CCC(Nc2ncc(C(=O)NO)cn2)(c2ccccc2)CC1)c1ccccc1 (stereo in doubt) [Compound 029, N-hydroxy-2-((1-(4-methyl-2-phenylpentanoyl)-4-phenylpiperidin-4-yl)amino)pyrimidine-5-carboxamide] |
| 23 | 22 | 114 | 12 | CC(C)C[C@@H](C(=O)N1CCC(Nc2ncc(C(=O)NO)cn2)(c2ccccc2)CC1)c1ccccc1 (stereo in doubt) [Compound 030, N-hydroxy-2-((1-(4-methyl-2-phenylpentanoyl)-4-phenylpiperidin-4-yl)amino)pyrimidine-5-carboxamide] |
| 33 | 43 | 1070 | 2 | O=C(NO)c1cnc(NC2(c3ccccc3)CCN(C(=O)Nc3ccc(F)cc3)CC2)nc1 [Compound 014, 2-((1-((4-fluorophenyl)carbamoyl)-4-phenylpiperidin-4-yl)amino)-N-hydroxypyrimidine-5-carboxamide] |
| 34 | 46 | 693 | 2 | Cc1ccc(NC(=O)N2CCC(Nc3ncc(C(=O)NO)cn3)(c3ccccc3)CC2)cc1 [Compound 015, N-hydroxy-2-((4-phenyl-1-(p-tolylcarbamoyl)piperidin-4-yl)amino)pyrimidine-5-carboxamide] |
| 170 | 207 | 987 | 1.7 | CNC(=O)N1CCC(Nc2ncc(C(=O)NO)cn2)(c2ccccc2)CC1 [Compound 016, N-hydroxy-2-((1-(methylcarbamoyl)-4-phenylpiperidin-4-yl)amino)pyrimidine-5-carboxamide] |
| 5.9 | 5.2 | 111 | 2.4 | O=C(NO)c1cnc(NC2(c3ccccc3)CCN(C(=S)Nc3ccccc3)CC2)nc1 [Compound 017, N-hydroxy-2-((4-phenyl-1-(phenylcarbamothioyl)piperidin-4-yl)amino)pyrimidine-5-carboxamide] |
| 551 | 644 | 2480 | 5.1 | O=C(NO)c1cnc(NC2(c3ccccc3)CCN(S(=O)(=O)c3cccc(F)c3)CC2)nc1 [Compound 018, 2-((1-((3-fluorophenyl)sulfonyl)-4-phenylpiperidin-4-yl)amino)-N-hydroxypyrimidine-5-carboxamide] |
| 854 | 987 | 3190 | 5 | O=C(NO)c1cnc(NC2(c3ccccc3)CCN(S(=O)(=O)c3ccc(Cl)cc3)CC2)nc1 [Compound 019, 2-((1-((4-chlorophenyl)sulfonyl)-4-phenylpiperidin-4-yl)amino)-N-hydroxypyrimidine-5-carboxamide] |
| 372 | 423 | 1980 | 4.5 | Cc1ccccc1S(=O)(=O)N1CCC(Nc2ncc(C(=O)NO)cn2)(c2ccccc2)CC1 [Compound 020, N-hydroxy-2-((4-phenyl-1-(o-tolylsulfonyl)piperidin-4-yl)amino)pyrimidine-5-carboxamide] |
| 570 | 642 | 2510 | 4.5 | Cc1ccc(S(=O)(=O)N2CCC(Nc3ncc(C(=O)NO)cn3)(c3ccccc3)CC2)cc1 [Compound 021, N-hydroxy-2-((4-phenyl-1-tosylpiperidin-4-yl)amino)pyrimidine-5-carboxamide] |
| 704 | 782 | 2700 | 7.3 | O=C(NO)c1cnc(NC2(c3ccccc3)CCN(S(=O)(=O)c3ccc(C(F)(F)F)cc3)CC2)nc1 [Compound 022, N-hydroxy-2-((4-phenyl-1-((4-(trifluoromethyl)phenyl)sulfonyl)piperidin-4-yl)amino)pyrimidine-5-carboxamide] |
